Reference: ChEMBL document CHEMBL1201862, “PubChem BioAssay data set” (2004)
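96-well plates; 48 h exposure; 5 concentrations. Endpoints by linear interpolation between flanking doses. Not reached: highest tested concentration assigned. GI50 marks 50% less growth.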 The source made the active and inactive calls. Cut-off read from the data, not from the text of the source: active = GI50 up to about 1.1 µM and inactive = higher.

Assays:
Assay in all cases: DTP human tumour cell line panel, 48 h
[1] = tested on: HCT-15
[2] = tested on: OVCAR-5
[3] = tested on: CAKI-1
[4] = tested on: MOLT-4
[5] = tested on: HOP-62
[6] = tested on: RXF 393
[7] = tested on: 786-0
[8] = tested on: SK-OV-3
[9] = tested on: SF-539
[10] = tested on: DU-145
[11] = tested on: COLO 205
[12] = tested on: SK-MEL-5
[13] = tested on: KM12
[14] = tested on: NCI-H522
[15] = tested on: NCI-H460
[16] = tested on: IGROV-1
[17] = tested on: MDA-MB-435
[18] = tested on: SNB-75
[19] = tested on: M14
[20] = tested on: HCC 2998

SMILES | GI50 [1] | GI50 [2] | GI50 [3] | GI50 [4] | GI50 [5] | GI50 [6] | GI50 [7] | GI50 [8] | GI50 [9] | GI50 [10] | GI50 [11] | GI50 [12] | GI50 [13] | GI50 [14] | GI50 [15] | GI50 [16] | GI50 [17] | GI50 [18] | GI50 [19] | GI50 [20]
O=c1n(CCCN2CCN(c3cccc(Cl)c3)CC2)nc2n1-c1ccc3ccccc3c1SC2 | > 100 µM | > 100 µM (inactive) | > 100 µM (inactive) | 7.93 µM (inactive) | > 100 µM (inactive) | > 100 µM (inactive) | > 100 µM (inactive) | > 100 µM (inactive) | > 100 µM (inactive) | > 100 µM (inactive) | 4.4 µM (inactive) | 6.01 µM (inactive) | > 100 µM (inactive) | > 100 µM (inactive) | > 100 µM (inactive) | > 100 µM (inactive) | > 100 µM (inactive) | > 100 µM (inactive) | – | –
Cc1[nH]n(-c2nc(-c3ccccc3)cc(=O)[nH]2)c(=O)c1CCO | > 100 µM | > 100 µM (inactive) | > 100 µM (inactive) | 63.5 µM (inactive) | > 100 µM (inactive) | > 100 µM (inactive) | > 100 µM (inactive) | > 100 µM (inactive) | > 100 µM (inactive) | > 100 µM (inactive) | > 100 µM (inactive) | > 100 µM (inactive) | > 100 µM (inactive) | – | > 100 µM (inactive) | > 100 µM (inactive) | > 100 µM (inactive) | – | > 100 µM (inactive) | > 100 µM (inactive)
C#CCOCC12C=CC(O1)C1C(=O)N(C)C(=O)C12 (stereo not given) | > 100 µM | > 100 µM (inactive) | – | > 100 µM (inactive) | > 100 µM (inactive) | > 100 µM (inactive) | > 100 µM (inactive) | > 100 µM (inactive) | > 100 µM (inactive) | > 100 µM (inactive) | > 100 µM (inactive) | > 100 µM (inactive) | > 100 µM (inactive) | – | > 100 µM (inactive) | > 100 µM (inactive) | > 100 µM (inactive) | > 100 µM (inactive) | > 100 µM (inactive) | > 100 µM (inactive)
CC1OC(OC2C(O[C@@H]3C[C@@H]4CC[C@@H]5[C@H](CC[C@]6(C)[C@@H]7[C@H](C[C@@H]56)O[C@]5(CC[C@@H](C)CO5)[C@H]7C)[C@@]4(C)C[C@H]3O)OC(CO)C(OC3OC(CO)C(O)C(O)C3O)C2O)C(O)C(O)C1O (stereo not given in full) | 2.17 µM | 1.59 µM (inactive) | 1.78 µM (inactive) | 1.96 µM (inactive) | 1.83 µM (inactive) | 2.01 µM (inactive) | 1.73 µM (inactive) | 1.69 µM (inactive) | 1.77 µM (inactive) | 2.08 µM (inactive) | 1.74 µM (inactive) | 1.55 µM (inactive) | 1.98 µM (inactive) | 1.1 µM (active) | 1.76 µM (inactive) | 1.14 µM (inactive) | 1.78 µM (inactive) | 2.25 µM (inactive) | 1.69 µM (inactive) | –
O=[N+]([O-])c1cccc(-c2cn3c(n2)Cc2ccccc2C3)c1 | > 100 µM | 17.8 µM (inactive) | 15.6 µM (inactive) | 9.68 µM (inactive) | 29.1 µM (inactive) | > 100 µM (inactive) | > 100 µM (inactive) | > 100 µM (inactive) | 57.4 µM (inactive) | > 100 µM (inactive) | 45.5 µM (inactive) | 28.6 µM (inactive) | 24.9 µM (inactive) | 34.4 µM (inactive) | 85.7 µM (inactive) | > 100 µM (inactive) | 83.4 µM (inactive) | > 100 µM (inactive) | 42.4 µM (inactive) | –
CCN(CC)CCC(=O)NC1c2ccc(Cl)cc2Oc2c(C)cccc21 (stereo not given) | 18.7 µM | 15.6 µM (inactive) | – | 18.6 µM (inactive) | > 10 µM (inactive) | – | 12.6 µM (inactive) | 17.6 µM (inactive) | 13.2 µM (inactive) | 16 µM (inactive) | 18.6 µM (inactive) | 13.3 µM (inactive) | 15.6 µM (inactive) | 17.1 µM (inactive) | 16.6 µM (inactive) | 13 µM (inactive) | 15.1 µM (inactive) | 10.2 µM (inactive) | 17.5 µM (inactive) | 24.2 µM (inactive)
CC[C@](C)(O)C(=O)O[C@H]1C(=O)O[C@@H]2C[C@H]3C(C)=CC(=O)[C@@H](O)[C@]3(C)[C@H]3[C@@]4(O)OC[C@]32[C@@H]1[C@@H](C)[C@H]4O [GLAUCARUBINONE] | 0.0885 µM | 0.658 µM (active) | – | 0.05 µM (active) | 0.0794 µM (active) | 0.05 µM (active) | 0.146 µM (active) | 1.02 µM (active) | 0.05 µM (active) | 0.824 µM (active) | 0.815 µM (active) | 0.0442 µM (active) | 0.0604 µM (active) | – | 0.0912 µM (active) | 0.05 µM (active) | 1.4 µM (inactive) | 0.0585 µM (active) | 0.107 µM (active) | 0.0679 µM (active)
CCC1CC(=O)N(SCC(N)C(=O)O)C1=O (stereo not given) | > 100 µM | > 100 µM (inactive) | > 100 µM (inactive) | – | > 100 µM (inactive) | > 100 µM (inactive) | > 100 µM (inactive) | > 100 µM (inactive) | > 100 µM (inactive) | > 100 µM (inactive) | > 100 µM (inactive) | > 100 µM (inactive) | > 100 µM (inactive) | > 100 µM (inactive) | > 100 µM (inactive) | > 100 µM (inactive) | > 100 µM (inactive) | > 100 µM (inactive) | > 100 µM (inactive) | –
Oc1cc(-c2cccc(Br)c2)nc2cc3c(cc12)OCO3 | 4.14 µM | 51.5 µM (inactive) | – | 72.3 µM (inactive) | 1.99 µM (inactive) | 4.33 µM (inactive) | 3.52 µM (inactive) | 3.8 µM (inactive) | 2.19 µM (inactive) | 5.43 µM (inactive) | 32 µM (inactive) | 1.38 µM (inactive) | 3 µM (inactive) | 3.93 µM (inactive) | 4.01 µM (inactive) | 1.8 µM (inactive) | 0.883 µM (active) | 2.72 µM (inactive) | 2.65 µM (inactive) | 15.1 µM (inactive)
O=C1NN=C(c2c[nH]c3ccccc23)CC1NCc1ccccc1 (stereo not given) | > 100 µM | > 100 µM (inactive) | > 100 µM (inactive) | > 100 µM (inactive) | > 100 µM (inactive) | > 100 µM (inactive) | > 100 µM (inactive) | > 100 µM (inactive) | > 100 µM (inactive) | > 100 µM (inactive) | > 100 µM (inactive) | > 100 µM (inactive) | > 100 µM (inactive) | > 100 µM (inactive) | > 100 µM (inactive) | 1.01 µM (active) | > 100 µM (inactive) | > 100 µM (inactive) | > 100 µM (inactive) | –
Cc1ccc(/N=N/c2c(O)c(C(=O)O)cc3ccccc23)c(S(=O)(=O)O)c1 | > 100 µM | > 100 µM (inactive) | > 100 µM (inactive) | > 100 µM (inactive) | > 100 µM (inactive) | > 100 µM (inactive) | > 100 µM (inactive) | > 100 µM (inactive) | – | > 100 µM (inactive) | > 100 µM (inactive) | > 100 µM (inactive) | > 100 µM (inactive) | > 100 µM (inactive) | – | > 100 µM (inactive) | > 100 µM (inactive) | > 100 µM (inactive) | > 100 µM (inactive) | –
Cc1ccc(C2(c3ccc(Cl)cc3)c3ccccc3C3=NCCN32)cc1 (stereo not given) | 11.6 µM | 12.5 µM (inactive) | 21.5 µM (inactive) | 3.66 µM (inactive) | 9.68 µM (inactive) | 2.31 µM (inactive) | 13.1 µM (inactive) | 6.08 µM (inactive) | – | 13.2 µM (inactive) | 4.6 µM (inactive) | 10.9 µM (inactive) | 10.7 µM (inactive) | – | 6 µM (inactive) | 2.15 µM (inactive) | 2.86 µM (inactive) | 12.2 µM (inactive) | 3.7 µM (inactive) | 5.58 µM (inactive)
Cc1ccc(Cc2n[nH]c(=O)[nH]2)cc1 | > 100 µM | > 100 µM (inactive) | > 100 µM (inactive) | > 100 µM (inactive) | > 100 µM (inactive) | – | > 100 µM (inactive) | > 100 µM (inactive) | > 100 µM (inactive) | > 100 µM (inactive) | > 100 µM (inactive) | > 100 µM (inactive) | > 100 µM (inactive) | – | > 100 µM (inactive) | > 100 µM (inactive) | > 100 µM (inactive) | > 100 µM (inactive) | > 100 µM (inactive) | > 100 µM (inactive)
CCCC(C)c1c(Cl)nc(Cl)nc1Cl (stereo not given) | 7.38 µM | 21.2 µM (inactive) | – | 1.49 µM (inactive) | 8.36 µM (inactive) | 10.6 µM (inactive) | 4.79 µM (inactive) | 20.2 µM (inactive) | 5.73 µM (inactive) | 15 µM (inactive) | 4.4 µM (inactive) | 3.41 µM (inactive) | 2.47 µM (inactive) | 1.13 µM (inactive) | 11 µM (inactive) | 14.7 µM (inactive) | 3.75 µM (inactive) | 14.5 µM (inactive) | 1.71 µM (inactive) | 5.18 µM (inactive)
O=P(O)(O)CN1CCNCCN(CP(=O)(O)O)CCN(CP(=O)(O)O)CCNCC1 | > 100 µM | > 100 µM (inactive) | 22500 µM (inactive) | > 100 µM (inactive) | > 100 µM (inactive) | > 100000 µM (inactive) | > 100 µM (inactive) | > 100 µM (inactive) | > 100 µM (inactive) | > 100 µM (inactive) | 44200 µM (inactive) | 77300 µM (inactive) | 55200 µM (inactive) | > 100 µM (inactive) | 42400 µM (inactive) | 65900 µM (inactive) | > 100 µM (inactive) | 24.4 µM (inactive) | > 100 µM (inactive) | –
